Data set [1] relates to SA 182 (Staphylococcus aureus 182). Description: MIC. It is filed as cell-based. The method, then:
(§1) The strains included Staphylococcus aureus, Methicillin Resistant (ATCC 33591), Methicillin-Resistant Staphylococcus aureus USA300, Staphylococcus aureus 158, Staphylococcus aureus 22, Staphylococcus aureus 2, Staphylococcus aureus (ATCC 29213), and Staphylococcus aureus 182.
(§2) A series of compounds were evaluated for their activity against drug resistant S. aureus, including MSSA and MRSA strains.

The test system of data set [2] is SA 29213 (Staphylococcus aureus (ATCC 29213)). In words: MIC. It is filed as cell-based. The method, then:
as §1, §2

The test system of data set [3] is SA 2 (Staphylococcus aureus 2). In words: MIC. It is filed as cell-based. The method, then:
as §1, §2

In data set [4] the test system is SA 22 (Staphylococcus aureus 22). Description: MIC. It is filed as cell-based. The protocol: as §1, §2
Data set [5] relates to SA 158 (Staphylococcus aureus 158). Description: MIC. It is filed as cell-based. The protocol:
as §1, §2

Data set [6] relates to SA USA 300 (Methicillin-Resistant Staphylococcus aureus USA300). Description: MIC. It is filed as cell-based. The method, then:
as §1, §2

Data set [7] deals with SA 33591 (Staphylococcus aureus, Methicillin Resistant (ATCC 33591)). In words: MIC. It is filed as cell-based. The protocol:
as §1, §2

For the next data set, the system named is E. faecium 134529. Description: MIC. It is filed as cell-based. The conditions noted are these: Enterococcus faecium. The method, then:
(§3) The compounds were re-tested against other bacteria, including Staphylococcus epidermidis (ATCC 35984), Staphylococcus epidermidis (MRSE), E. faecium 134529, E. faecium 145494, […], E. faecium 161651, S. pneumoniae 49619, and S. pneumoniae 149389.
as §2

Another data set deals with S. epidermidis 35984. In words: MIC. It is filed as cell-based. The settings on record: Staphylococcus epidermidis. The protocol: as §3, §2
In the next data set the test system is S. pneumoniae 49619. Description: MIC. It is filed as cell-based. The settings on record: Streptococcus pneumoniae. The protocol: as §3, §2
A further data set has as its system S. pneumoniae 149389. In words: MIC. It is filed as cell-based. The settings on record: Streptococcus pneumoniae. The protocol: as §3, §2
A further data set concerns E. faecium 145494. In words: MIC. It is filed as cell-based. The settings on record: Enterococcus faecium. The protocol: as §3, §2
For another data set, the system named is E. faecalis 29212. In words: MIC. It is filed as cell-based. The settings on record: Enterococcus faecalis. The method, then:
as §3, §2

In another data set the test system is E. faecalis 161651. In words: MIC. It is filed as cell-based. The conditions noted are these: Enterococcus faecalis. The method, then:
as §3, §2

In the next data set the test system is S. epidermidis MRSE 01. In words: MIC. It is filed as cell-based. The settings on record: Staphylococcus epidermidis. The method, then:
as §3, §2

A further data set has as its system E. coli 25922. Description: MIC. It is filed as cell-based. The settings on record: Escherichia coli.
The subject of the next data set is K. pneumoniae UMM. In words: MIC. The settings on record: Klebsiella pneumoniae. It is filed as cell-based.
Data set [8] in a line: Mammalian Cell Toxicity. It is filed as cell-based. The conditions noted are these: human, MRC5 cells.
For another data set, the system named is K. pneumoniae 700603. In words: MIC. It is filed as cell-based. The conditions noted are these: Klebsiella pneumoniae.
In data set [9] the test system is S. aureus specific Arg ASL (anticodon stem loop) RNA oligomer interaction with programmed ribosomes. In words: Fluorescence polarization assay of Arg ASL / programmed ribosome complex (HTS and dose response). It is filed as binding, S. aureus Arg ASL; E. coli 70S ribosomes. The settings on record: 6 pt dose response, fluorescence polarization after 4 hours at 25° C., corrected for auto-fluorescence. From the text: The assay requires the following materials: • Ribosomes—isolated from E. coli or S. aureus • fMet tRNA (Sigma or Chemical Block, Moscow) • mRNA (including the S-D sequence, the “box” sequence, the codon for methionine, and the codon for arginine that is specific for S. aureus, AGA, optionally with additional base pairs to the left of the S-D sequence and/or to the right of the codon for arginine) • Fluorescently labeled Arg ASL oliogomer • Buffer—HAM20,β • 384 well high binding micro titer plates (Matrix Technologies #4319, sold by Fischer Scientific as cat #50823855), or other appropriate plates for use in high throughput screening • Filtration (Sartorius Stedium 100 Kdalton VC 1042) or centrifugation for complex purification • EDTA—negative control (binding antagonist) • Neomycin—A-site binding enhancer (binding agonist)
A ribosome complex was prepared using the above materials and then purified prior to use in the assay. The prepared complex can be stored in concentrated form at −80° C. The complexes were diluted in buffer and dispensed onto plates. […] Fluorescence polarization was measured at approximately 4 hours after dispensing onto the micro-titer plates.
ASL^Arg was first heated for 2 min at 90° C. in water, after addition of 1/10 V of 10× buffer incubation continued on ice for at least 10 min. Prior to complex formation 70S ribosomes and tRNA were reactivated in buffer for 5 min at 45° C. followed by 10 min at 37° C.; mRNA was heated in buffer at 37° C. for 5 min. • (1000 μl×(2 μM E. coli 70S ribosomes+10 μM mRNA-Arg+4 μM tRNA^fmet)/HAM20,β→30 min @ 37° C.,+1000 μl×(0.2 μM neomycin+[…]))→20 min @ 37° C., overnight on ice • Final complex: (2000 pm P+2000 pm ASL)/2 ml=1 μM P+1 μM ASL HAM20,β:
Preparation of Complexes: The purified complex was diluted in ice cold HAM20,β such that the total fluorescence was approximately 2,000,000 units per 5 μL.
20 μl of the diluted complex was added to all 384 well plates (except for blank wells, which received 20 μL of HAM20 only, without complex) using Multidrop dispenser after which the plates were incubated at 25° C. for 4 hours (target 4.5 hours for middle of batch). Plates were then analyzed for fluorescence polarization in Analyst HT fluorescence plate reader and the following instrument settings:
The parallel and perpendicular fluorescence values of experimental wells were automatically corrected for the corresponding values obtained from the blank wells. The fluorescence polarization was calculated as following: P=(I−Ip)/(I+Ip), wherein Ip—is perpendicular fluorescence and I—is parallel fluorescence.
The percent of effect of experimental compounds was calculated as following: %-Inh=(P0−Pc)/(P0−P100)*100, wherein P0—is average polarization in 0%—inhibition control wells, P100—is average polarization in 100%—inhibition control wells, and Pc—is polarization in compound well.
The 3 sigma HTS hits were cherry picked and retested in 6 pt dose response format, using 3× serial dilution and the top nominal concentration of 100 uM.
The compounds were serially diluted in 10% DMSO and plated into 384 well plates (in a volume of 5 μL) to achieve the nominal final concentration raging from 100 μM to 0.4 μM. The plates received 20 μl of the diluted complex following incubation at 25° C. for 4 hours. Plates were then analyzed for fluorescence polarization as described above (see HTS section).
In parallel, the compounds were tested for auto-fluorescence. To this end, the compounds were plated (using the same dilution protocol) into 384 well plates. The plates received 20 μL of the HAM20 assay buffer only (without complex). The plates were incubated for 4 hrs and then were analyzed for fluorescence polarization as described above.
(Polarisation of emitted light reports the rotation of a fluorescent probe.)

A short description of data set [10]: Mammalian Cell Toxicity. It is filed as cell-based. The conditions noted are these: mouse, 3T3 cells.
The subject of the next data set is E. coli ESBL 4. In words: MIC. It is filed as cell-based. The conditions noted are these: Escherichia coli, ESBL4.

In brackets after ≈: the same amount, converted by molar mass. Where two headings read alike, the source gives them in different places.

By MIC is commonly meant the least concentration at which growth counts as inhibited. As a reminder, the CC50 is the concentration that lowers cell viability or growth by half. Read a low CC50 as greater toxicity to the cells. Broadly, the IC50 is the point on the concentration scale where inhibition reaches its midpoint.

`CCN1C(=O)C2Cc3c([nH]c4ccccc34)CN2C1=S` (centres unmarked) [Compound #740, 2-ethyl-3-thioxo-2,3,5,6,11,11a-hexahydro-1H-imidazo[1′,5′:1,6]pyrido[3,4-b]indol-1-one]: the MIC in data set [1] (SA 182, read-out: MIC) was 128 µg/mL (≈ 449 µM); in [2] (ATCC29213, SA 29213, read-out: MIC), 64 µg/mL (≈ 224 µM); in data set [3] (SA 2, read-out: MIC), 32 µg/mL (≈ 112 µM); in [4] (SA 22, read-out: MIC) it was 32 µg/mL (≈ 112 µM); in data set [5] (SA 158, read-out: MIC), 128 µg/mL (≈ 449 µM); in [6] (SA USA 300, read-out: MIC) it was 128 µg/mL (≈ 449 µM). For the same molecule, the minimal inhibitory concentration (MIC) in data set [7] (ATCC33591, SA 33591, read-out: MIC) was 128 µg/mL (≈ 449 µM); in the data set on E. faecium 134529 (E. faecium 134529, read-out: MIC), 64 µg/mL (≈ 224 µM); in the data set on S. epidermidis 35984 (S. epidermidis 35984, read-out: MIC) it was 128 µg/mL (≈ 449 µM); with S. pneumoniae 49619 (S. pneumoniae 49619, read-out: MIC), above 128 µg/mL; in the data set with S. pneumoniae 149389 (S. pneumoniae 149389, read-out: MIC) it was above 128 µg/mL; in the data set on E. faecium 145494 (E. faecium 145494, read-out: MIC), above 128 µg/mL. Also, the MIC with E. faecalis 29212 (E. faecalis 29212, read-out: MIC) was 128 µg/mL (≈ 449 µM); in the data set with E. faecalis 161651 (E. faecalis 161651, read-out: MIC) it was 128 µg/mL (≈ 449 µM); in the data set on S. epidermidis MRSE 01 (S. epidermidis MRSE 01, read-out: MIC) it was 64 µg/mL (≈ 224 µM); with E. coli 25922 (E. coli 25922, read-out: MIC) it was above 128 µg/mL; in the data set with K. pneumoniae UMM (K. pneumoniae UMM, read-out: MIC), above 128 µg/mL; in the data set with K. pneumoniae 700603 (K. pneumoniae 700603, read-out: MIC), above 128 µg/mL. The minimal inhibitory concentration (MIC) in the data set on E. coli ESBL 4 (E. coli ESBL 4, read-out: MIC) is above 128 µg/mL. The CC50 is 62 µg/mL (≈ 217 µM) in “Mammalian Cell Toxicity [8]” and 20 to 64 µg/mL (≈ 70.1 to 224 µM) in the data set “Mammalian Cell Toxicity [10]”. Also, the IC50 in data set [9] (read-out: IC50) stood at 44.2 µM.

For `CC[n+]1c(C=CC=CN(C(C)=O)c2ccccc2)sc2ccccc21.[I-]` [Compound #928, 2-{4-[acetyl(phenyl)amino]-1,3-butadien-1-yl}-3-ethyl-1,3-benzothiazol-3-ium iodide], the MIC in data set [1] is above 128 µg/mL; in data set [2] (ATCC29213), 64 µg/mL; in [3], 128 µg/mL; in [4] it was 64 µg/mL; in data set [5], 128 µg/mL; in data set [6], 64 µg/mL. Further, the MIC in data set [7] (ATCC33591) is 128 µg/mL; with E. faecium 134529 (134529), 128 µg/mL; against S. epidermidis 35984 (35984), 128 µg/mL; with S. pneumoniae 49619 (49619) it was above 128 µg/mL; with S. pneumoniae 149389 (149389) it was above 128 µg/mL; with E. faecium 145494 (145494), 128 µg/mL. Besides, the MIC was 128 µg/mL against E. faecalis 29212 (29212); 128 µg/mL against E. faecalis 161651 (161651); 64 µg/mL against S. epidermidis MRSE 01 (MRSE); above 128 µg/mL in the data set with E. coli 25922 (25922); above 128 µg/mL in the data set with K. pneumoniae UMM; above 128 µg/mL in the data set with K. pneumoniae 700603 (700603). This molecule displayed a minimal inhibitory concentration (MIC) in the data set with E. coli ESBL 4 above 128 µg/mL. The CC50 in the data set “Mammalian Cell Toxicity [8]” and in the data set “Mammalian Cell Toxicity [10]” was 20 to 64 µg/mL each time. The IC50 result in [9] was “agonist”.

(Values after patent US10316371B2, “Screening methods for identifying specific Staphylococcus aureus inhibitors” (TRANA DISCOVERY, INC., priority 2011, dated 2019).)
